Source: patent US20100260680A1, “NOVEL BONE MASS INCREASING AGENT” (ORIENTAL YEAST CO., LTD., priority 2007, published 2010)
“Also recorded” adds a separate entry of the source. Bridges are numbered along the chain shown (N, C = ends). Where no end group is shown, it is not given here.

Legend:
GSK3β = assay: Western blotting of GSK3β phosphorylation in MC3T3-E1 cells; format: cell-based, mouse; details: 1 and 3 hours after the addition; 200 μM peptide D or 200 ng/ml BMP-2
Experimental: MC3T3-E1 cells mixed with 10% FBS+αMEM (SIGMA) were seeded on a 6-well plate (7.5×10^4 cells/well). […] The medium was removed at the respective time points shown in the relevant figures. PBS was added to the cells, and the cells were collected with a scraper (Falcon). A cell pellet was obtained via centrifugation at 1200 rpm for 5 min at 4° C. RIPA buffer (100 μL) was added to the collected pellet, for dissolution of the cellular membrane. Further, the resultant was centrifuged under conditions of 14500 rpm for 25 min at 4° C. The supernatant was collected as a cell extract. A portion of the cell extract was used for quantification of the protein concentration with the use of a BCA protein assay kit (PIERCE). For SDS-PAGE, a sample buffer in an amount that was ¼ that of the cell extract (Fermentas) was added thereto, followed by heating at 95° C. for 5 min. The prepared sample was applied in an amount of 7.5 or 10 μg to 10% polyacrylamide gel (BioRad), followed by electrophoresis at 170 V for 1 hour. After electrophoresis, the electrophoresed sample was transferred to a PVDF membrane (Millipore) at 80 mA for 40 min. The membrane was shaken in a blocking solution (Nacalai) at room temperature for 1 hour and then a primary antibody was added thereto, followed by shaking at room temperature for 1 hour at 4° C. for 12 hours. […]

mouse osteoblasts = assay: Proliferative response of mouse osteoblasts (WST-1); format: cell-based; details: 100 μM peptide D (acetate) or 3 μg/mL antibody; with or without 5 ng/mL BMP-2; 72-hour culture
Experimental: Mouse osteoblasts mixed with 10% FBS+αMEM (SIGMA) were seeded on a 96-well plate (2×10^3 cells/well). After cell adhesion had taken place, the medium was removed therefrom. […] After 72-hour culture, WST-1 (Roche) was added thereto in an amount 1/10 that of each medium, followed by incubation at 37° C. for 3 hours. Then, the OD value (450 nm) for each well was determined with a microplate reader (BMG Labtech) (reference wavelength: 595 nm).

peptide D: cyclic peptide of SEQ ID NO: 7, 9 amino acids, two cysteine residues bound via a disulfide bond; binds to RANKL (YCWSQYLCY; disulfide 2-8 (inferred))
phosphorylation of GSK3β (GSK3β): confirmed to be induced | mouse osteoblast proliferation (WST-1) (mouse osteoblasts): promoted mouse osteoblast proliferation; also recorded: weak effects
